Results taken from patent US20200164034A1, “METHODS FOR IMPROVING SEX-DIMORPHIC RESPONSES TO TARGETED THERAPY IN MELANOMA” (Board of Regents, The University of Texas System, priority 2018, published 2020).

How the values were obtained:
Assay type in all cases: cell-based, human
[1] = tested on: BRAFV600E melanoma cell lines; experiment: Hormonal co-treatment in vitro: proliferative response to DT; settings: cell culture, co-treatment with dabrafenib 1 μM and trametinib 100 nM
[2] = tested on: BRAFV600E melanoma cell lines; experiment: Hormonal co-treatment in vitro: cell cycle response to DT; settings: cell culture, co-treatment with dabrafenib 1 μM and trametinib 100 nM
Protocol: (§1) In parallel, hormonal perturbations were evaluated in vitro using a panel of BRAFV600E melanoma cell lines derived from melanoma patients of the institution.
(§2) Melanoma cell lines derived from tumors of patients treated at UT MD Anderson Cancer Center under the TIL program were obtained from Dr. Chantale Bernatchez and Dr. Scott Woodman. For these studies, n=5 male (2373, 2400, 2650, 2800 and 624-mel) and n=5 female (2153, 2333, 2379, 2508, 2510) lines were selected based on carriage of BRAF^V600E/K mutations and avoidance of prior exposure in vivo to MAPK blockade therapies. Cells were maintained in phenol red-free RPMI-1640 supplemented with 10% heat-inactivated FBS, 1% GlutaMAX and 1% Pencillin/Streptomycin (all Gibco). LNCaP, MCF7 and PC3 cell lines were obtained from institutional stocks and maintained in RPMI-1640 supplemented as above (LNCaP, MCF7) or DMEM/F12 supplemented as above (PC3). All cell lines were confirmed mycoplasma negative using the Lonza MycoALERT kit prior to use, and authenticated by STR profiling via the MD Anderson Characterized Cell Line Core. […]

[3] = tested on: BRAFV600E melanoma cell lines; experiment: Hormonal co-treatment in vitro: apoptosis response to DT; settings: cell culture, co-treatment with dabrafenib 1 μM and trametinib 100 nM, 72 hours
Protocol: as §1
as §2, with “(PC3).” for “(PC3). All cell lines were confirmed mycoplasma negative using the Lonza MycoALERT kit prior to use, and authenticated by STR profiling via the MD Anderson Characterized Cell Line Core.”
Cells were plated into 6-well plates at 250,000 cells/well in full growth media and allowed to adhere overnight prior to drug treatment as shown in results in reduced-serum medium (5% FBS, phenol red-free RPMI-1640). […] Data acquisition by flow cytometry was performed within 2 hours of cell harvest and analyzed in FlowJo after gating on cell size, singlets, and applying Curly Quadrant gates to PI vs YO-PRO-1 fluorescence.

C[C@]12CC[C@H]3[C@@H](CCC4=CC(=O)CC[C@@]43C)[C@@H]1CC[C@@H]2O [testosterone]
no significant effects: effect on proliferative response to DT treatment [1] | effect on cell cycle response to DT treatment [2] | effect on apoptosis response to DT treatment [3]

CNC(=O)c1ccc(N2C(=S)N(c3ccc(C#N)c(C(F)(F)F)c3)C(=O)C2(C)C)cc1F [enzalutamide]
no significant effects: effect on proliferative response to DT treatment [1] | effect on cell cycle response to DT treatment [2] | effect on apoptosis response to DT treatment [3]
